Data taken from patent US20220096450A1, “Compounds and Methods for Treating or Preventing Heart Failure” (DREXEL UNIVERSITY, priority 2019, published 2022).

molecular target: SQOR (Homo sapiens, UniProt Q9Y6N5); experiment: DCIP endpoint assay of SQOR activity; type: biochemical; details: Table 1, SAR of Set A/A′ and Set B; read-out: IC50
Protocol: The assay is based on the ability of reduced CoQ1, which is produced in the SQOR reaction, to nonenzymically reduce 2,6-dichloroindiphenol (DCIP) (Δεox-red=20 mM−1 cm−1 at 600 nm). Reaction mixtures containing SQOR, substrates (H2S, sulfite, CoQ1) and various concentrations of an inhibitor are incubated in 96-well plates for 60 s. The reactions are quenched by addition of formaldehyde and N-ethylmaleimide to denature SQOR and consume unreacted H2S, respectively, and are then incubated for 10 min prior to addition of DCIP. The absorbance at 600 nm is read 30 s after DCIP addition by using a BioTek Synergy 2 plate reader.

Chain of SQOR (Q9Y6N5 whole entry): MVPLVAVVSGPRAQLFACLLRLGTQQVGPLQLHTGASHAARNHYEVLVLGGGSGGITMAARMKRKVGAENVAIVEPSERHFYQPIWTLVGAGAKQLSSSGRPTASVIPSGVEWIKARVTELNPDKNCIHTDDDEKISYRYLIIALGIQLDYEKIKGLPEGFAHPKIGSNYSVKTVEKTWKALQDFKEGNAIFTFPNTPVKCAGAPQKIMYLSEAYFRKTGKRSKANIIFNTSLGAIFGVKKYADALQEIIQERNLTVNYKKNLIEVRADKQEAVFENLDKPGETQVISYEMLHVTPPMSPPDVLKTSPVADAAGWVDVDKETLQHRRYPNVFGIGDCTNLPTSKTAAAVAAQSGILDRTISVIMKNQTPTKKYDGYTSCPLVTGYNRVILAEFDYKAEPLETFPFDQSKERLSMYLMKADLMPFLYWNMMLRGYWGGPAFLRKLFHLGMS

IC50 [nM]	SMILES
19	CCOc1nc(-c2ccccc2)cc(-c2ccccc2)c1C#N [Compound 13, 2-ethoxy-4,6-diphenylnicotinonitrile]
340	COc1nc2c(c(-c3ccccc3Cl)c1C#N)Cc1ccccc1-2 [Compound 6, 4-(2-chlorophenyl)-2-methoxy-5H-indeno[1,2-b]pyridine-3-carbonitrile]
1100	COc1nc2c(c(-c3ccc(C(F)(F)F)cc3)c1C#N)Cc1ccccc1-2 [Compound 8, 2-methoxy-4-(4-(trifluoromethyl)phenyl)-5H-indeno[1,2-b]pyridine-3-carbonitrile]
260	CCOc1nc2c(c(-c3ccc(OC)cc3)c1C#N)Cc1ccccc1-2 [Compound 5, 2-ethoxy-4-(4-methoxyphenyl)-5H-indeno[1,2-b]pyridine-3-carbonitrile]
440	O=[N+]([O-])c1cc(Cl)c(-n2cccc2)cc1N1CCOCC1 [Compound 19, 4-(4-chloro-2-nitro-5-(1H-pyrrol-1-yl)phenyl)morpholine]
880	COc1nc2c(c(-c3ccc(SC)cc3)c1C#N)Cc1ccccc1-2 [Compound 7, 2-methoxy-4-(4-(methylthio)phenyl)-5H-indeno[1,2-b]pyridine-3-carbonitrile]
1100	Cc1ccc(C)c(-c2cc(-c3ccc4c(c3)OCO4)c(C#N)c(N)n2)c1 [Compound 15, 2-amino-4-(benzo[d][1,3]dioxol-5-yl)-6-(2,5-dimethylphenyl)nicotinonitrile]
600	N#Cc1c(-c2ccccc2)cc(-c2ccc(F)cc2)nc1N [Compound 14, 2-amino-6-(4-fluorophenyl)-4-phenylnicotinonitrile]
6100	COc1cccc(-c2c(C#N)c(OC)nc3c2Cc2ccccc2-3)c1 [Compound 10, 2-methoxy-4-(3-methoxyphenyl)-5H-indeno[1,2-b]pyridine-3-carbonitrile]
30	CCOC(=O)COc1nc(-c2ccccc2)cc(-c2ccccc2)c1C#N [Compound 11, ethyl 2-((3-cyano-4,6-diphenylpyridin-2-yl)oxy)acetate]
21	COc1nc2c(c(-c3ccccc3)c1C#N)Cc1ccccc1-2 [Compound 4, 2-methoxy-4-phenyl-5H-indeno[1,2-b]pyridine-3-carbonitrile]
14000	Cc1ccc(-c2cc(-c3ccc4c(c3)OCO4)c(C#N)c(N)n2)cc1C [Compound 18, 2-amino-4-(benzo[d][1,3]dioxol-5-yl)-6-(3,4-dimethylphenyl)nicotinonitrile]
12000	N#Cc1c(-c2ccccc2)cc(-c2ccc(O)cc2)nc1N [Compound 17, 2-amino-6-(4-hydroxyphenyl)-4-phenylnicotinonitrile]

same assay, conditions: Table 2, SAR of Set C; read-out: IC50

IC50 [nM]	SMILES
4900	COc1ccc(Sc2ccc(C)cc2)c([N+](=O)[O-])c1 [Compound 34, (4-methoxy-2-nitrophenyl)(p-tolyl)sulfane]
24	Cc1cc([N+](=O)[O-])c(Sc2ccc(Cl)cc2)cc1C1SCCS1 [Compound 32, 2-(5-((4-chlorophenyl)thio)-2-methyl-4-nitrophenyl)-1,3-dithiolane]
8	Cc1ccc(Sc2cc(N3CCOCC3)c(C)cc2[N+](=O)[O-])cc1 [Compound 3, 4-(2-methyl-4-nitro-5-(p-tolylthio)phenyl)morpholine]
152	Cc1cc([N+](=O)[O-])c(S(=O)(=O)c2ccccc2)cc1C(=O)c1ccccc1 [Compound 33, (2-methyl-4-nitro-5-(phenylsulfonyl)phenyl)(phenyl)methanone]

same assay, conditions: Table 3; read-out: IC50

IC50 [nM]	SMILES
440	COc1nc(-c2ccccc2)cc(-c2ccccc2)c1C [2-Methoxy-3-methyl-4,6-diphenylpyridine]
32	Cc1cccnc1-c1cc(-c2ccc(F)cc2)c(C#N)c(OCc2ccccn2)n1 [2-((Pyridin-2-yl)methoxy)-4-(4-fluorophenyl)-6-(3-methylpyridin-2-yl)pyridine-3-carbonitrile]
10000	Cc1cccnc1-c1cc(-c2ccc(F)cc2)c(C#N)c(=O)n1Cc1cccnc1 [4-(4-fluorophenyl)-1,2-dihydro-6-(3-methylpyridin-2-yl)-2-oxo-1-((pyridin-3-yl)methyl)pyridine-3-carbonitrile]
480	COc1nc(-c2ccccc2)cc(-c2ccc(O)cc2)c1C#N [4-(4-Hydroxyphenyl)-2-methoxy-6-phenylpyridine-3-carbonitrile]
270	Cc1cccnc1-c1cc(-c2ccc(F)cc2)c(C#N)c(OCCN2CCOCC2)n1 [2-(2-Morpholinoethoxy)-4-(4-fluorophenyl)-6-(3-methylpyridin-2-yl)pyridine-3-carbonitrile]
1900	CC(=O)NCCOc1nc(-c2ccccn2)cc(-c2ccc(F)cc2)c1C#N [N-(2-(3-Cyano-4-(4-fluorophenyl)-6-(pyridin-2-yl)pyridin-2-yloxy)ethyl)acetamide]
540	COC(=O)N1CCN(CCOc2nc(-c3ncccc3C)cc(-c3ccc(F)cc3)c2C#N)CC1 [Methyl 4-(2-(3-cyano-4-(4-fluorophenyl)-6-(3-methylpyridin-2-yl)pyridin-2-yloxy)ethyl)piperazine-1-carboxylate]
230	COc1nc(-c2ccccc2N)cc(-c2ccc(F)cc2)c1C#N [6-(2-Aminophenyl)-4-(4-fluorophenyl)-2-methoxypyridine-3-carbonitrile]
14000	Cc1cccnc1-c1cc(-c2ccc(F)cc2)c(C#N)c(=O)n1CCN1CCOCC1 [4-(4-fluorophenyl)-1,2-dihydro-6-(3-methylpyridin-2-yl)-1-(2-morpholinoethyl)-2-oxopyridine-3-carbonitrile]
96	COC(=O)COCCOc1nc(-c2ncccc2C)cc(-c2ccc(F)cc2)c1C#N [Methyl 2-(3-cyano-4-(4-fluorophenyl)-6-(3-methylpyridin-2-yl)pyridin-2-yloxy) 2-(2-methoxyethoxy) acetate]
120	Cc1cccnc1-c1cc(-c2ccc(F)cc2)c(C#N)c(OCCN2CCN(C(=O)OC(C)C)CC2)n1 [Isopropyl 4-(2-(3-cyano-4-(4-fluorophenyl)-6-(3-methylpyridin-2-yl)pyridin-2-yloxy)ethyl)piperazine-1-carboxylate]
2700	N#Cc1c(-c2ccc(F)cc2)cc(-c2ccccn2)nc1OC[C@H]1CCC(=O)N1 [2-((R)-5-(Methoxy)pyrrolidin-2-one)-4-(4-fluorophenyl)-6-(pyridin-2-yl)pyridine-3-carbonitrile]
92	COc1nc(-c2ccccc2)cc(-c2ccc(N)cc2)c1C#N [4-(4-Aminophenyl)-2-methoxy-6-phenylpyridine-3-carbonitrile]
1000	COc1nc(-c2ccc(O)cc2)cc(-c2ccc(F)cc2)c1C#N [4-(4-Fluorophenyl)-6-(4-hydroxyphenyl)-2-methoxypyridine-3-carbonitrile]
7.2	C=CCOc1nc(-c2ccccn2)cc(-c2ccc(F)cc2)c1C#N [2-(Allyloxy)-4-(4-fluorophenyl)-6-(pyridin-2-yl)pyridine-3-carbonitrile]
40	Cc1cccnc1-c1cc(-c2ccc(F)cc2)c(C#N)c(OCc2cccnc2)n1 [2-((Pyridin-3-yl)methoxy)-4-(4-fluorophenyl)-6-(3-methylpyridin-2-yl)pyridine-3-carbonitrile]
120	CCOc1nc(-c2ccccc2)nc(-c2ccccc2)c1C#N [4-Ethoxy-2,6-diphenylpyrimidine-5-carbonitrile]
48000	COc1nc(-c2ccccc2)cc(-c2cccc([N+](=O)[O-])c2)c1C#N [2-Methoxy-4-(3-nitrophenyl)-6-phenylpyridine-3-carbonitrile]
7	COc1nc(-c2ccccc2[N+](=O)[O-])cc(-c2ccc(F)cc2)c1C#N [4-(4-Fluorophenyl)-2-methoxy-6-(2-nitrophenyl)pyridine-3-carbonitrile]
1900	COc1nc(-c2ccccc2)cc(-c2cccc(O)c2)c1C#N [4-(3-Hydroxyphenyl)-2-methoxy-6-phenylpyridine-3-carbonitrile]
39000	N#Cc1c(-c2ccc(F)cc2)cc(-c2ccccn2)nc1OC[C@@H]1CCC(=O)N1 [2-((S)-5-(Methoxy)pyrrolidin-2-one)-4-(4-fluorophenyl)-6-(pyridin-2-yl)pyridine-3-carbonitrile]
25	N#CCOc1nc(-c2ccccn2)cc(-c2ccc(F)cc2)c1C#N [2-(Cyanomethoxy)-4-(4-fluorophenyl)-6-(pyridin-2-yl)pyridine-3-carbonitrile]
2200	CN(C)CCCOc1nc(-c2ccccn2)cc(-c2ccc(F)cc2)c1C#N [2-(3-(Dimethylamino)propoxy)-4-(4-fluorophenyl)-6-(pyridin-2-yl)pyridine-3-carbonitrile]
680	COc1nc(-c2ccccn2)cc(-c2ccco2)c1C#N [4-(Furan-2-yl)-2-methoxy-6-(pyridin-2-yl)pyridine-3-carbonitrile]
230	COc1nc(-c2cccc(O)c2)cc(-c2ccc(F)cc2)c1C#N [4-(4-fluorophenyl)-6-(3-hydroxyphenyl)-2-methoxypyridine-3-carbonitrile]
120	Cc1cccnc1-c1cc(-c2ccc(F)cc2)c(C#N)c(OCc2ccncc2)n1 [2-((Pyridin-4-yl)methoxy)-4-(4-fluorophenyl)-6-(3-methylpyridin-2-yl)pyridine-3-carbonitrile]

SMILES	IC50 [nM]
Cc1cccnc1-c1cc(-c2ccc(F)cc2)c(C#N)c(OCCN2CCN(C(=O)OC(C)(C)C)CC2)n1 [tert-Butyl 4-(2-(3-cyano-4-(4-fluorophenyl)-6-(3-methylpyridin-2-yl)pyridin-2-yloxy)ethyl)piperazine-1-carboxylate]	43

same assay, conditions: read-out: IC50 against SQOR

IC50 [nM]	SMILES
9.4	CCOc1nc2c(c(-c3ccc(F)cc3)c1C#N)Cc1ccccc1-2 [Compound 1, 2-ethoxy-4-(4-fluorophenyl)-5H-indeno[1,2-b]pyridine-3-carbonitrile]
